Experimental data taken from patent US20260097133A1, “EPIGENETIC EDITING TOOL FOR TARGETING HEPATITIS B VIRUS GENE” (priority 2023, published 2026).

Columns and labels:
Format in all cases: cell-based
Details in all cases: sgRNA in GFP-negative cell population, day 14 after transfection of EPIREG
[1] = system: type D HBV surface antigen (HBsAg) reporter cell line; assay: sgRNA lentiviral library screening, HBsAg reporter cell line (NGS reads in GFP-negative cells)
Text: (§1) In this example, the type D HBV X protein (HBx), core antigen (HBcAg), and surface antigen (HBsAg) reporter cell lines were used for library screening. First, a sgRNA cell library of type D HBV gene was constructed using a reporter cell line according to the method described in example 1. The sgRNA library was packaged into lentivirus to obtain a sgRNA lentiviral library (carrying red fluorescence), the reporter cell line was infected with the lentiviral library, and the red fluorescence was sorted to obtain the sgRNA cell library. Each cell in this sorted cell library integrated a single sgRNA in the library while the cell itself carried a reporter sequence (carrying green fluorescence). The EPIREG tool described in example 2 (the amino acid sequence of the tool was SEQ ID NO: 1194) (carrying blue fluorescence) was transfected and delivered into a cell library carrying both sgRNA and reporter sequences. Red/green/blue fluorescent triple-positive cells were sorted using a flow cytometer and cultured long-term. The EPIREG transfected into the cells could work together with the sgRNA to silence GFP in the reporter. On the day 14 after transfection, the GFP-negative cell population in the cell library was sorted, the genomic DNA of the negative cell population was extracted for NGS sequencing. The sgRNAs with higher sequencing reads in the negative cell population were compared using the untreated cell library as a control reference, so as to obtain the candidate sgRNAs that could play an editing role corresponding to each reporter, respectively (the schematic diagram of this screening scheme is shown in FIG. 6, and the analysis method is referenced to the literature DOI: 10.1186/s13059-014-0554-4). The functionally validated sgRNAs for each reporter cell line are summarized in the following table (arranged by the starting position of the target sequence of each sgRNA).

[2] = system: type D HBV core antigen (HBcAg) reporter cell line; assay: sgRNA lentiviral library screening, HBcAg reporter cell line (NGS reads in GFP-negative cells)
Text: as §1

[3] = system: type D HBV X protein (HBx) reporter cell line; assay: sgRNA lentiviral library screening, HBx reporter cell line (NGS reads in GFP-negative cells)
Text: as §1

Substance: 27 (guide AACAAGAGATGATTAGGCAG; listed as DNA, chemistry not fully specified) [compound 27]
- Log2 FC [1]: 1.3821

Substance: 62 (guide AATGTCAACGACCGACCTTG; listed as DNA, chemistry not fully specified) [compound 62]
- Log2 FC [2]: 2.2035
- Log2 FC [1]: 1.5364

Substance: 88 (guide ACATCGTATCCATGGCTGCT; listed as DNA, chemistry not fully specified) [compound 88]
- Log2 FC [2]: 3.4446
- Log2 FC [3]: 3.4448
- Log2 FC [1]: 1.2095

Substance: 112 (guide ACCTTTGGATAAAACCTAGC; listed as DNA, chemistry not fully specified) [compound 112]
- Log2 FC [1]: 1.203

Substance: 121 (guide ACTACTGTTGTTAGACGACG; listed as DNA, chemistry not fully specified) [compound 121]
- Log2 FC [1]: 1.0553

Substance: 127 (guide ACTGGCTGGGGCTTGGTCAT; listed as DNA, chemistry not fully specified) [compound 127]
- Log2 FC [2]: 2.0792
- Log2 FC [3]: 7.231
- Log2 FC [1]: 1.3983

Substance: 145 (guide AGACTGGGAGGAGTTGGGGG; listed as DNA, chemistry not fully specified) [compound 145]
- Log2 FC [2]: 3.5473
- Log2 FC [1]: 1.8314

Substance: 150 (guide AGAGAGGTGCGCCCCGTGGT; listed as DNA, chemistry not fully specified) [compound 150]
- Log2 FC [3]: 3.8671
- Log2 FC [1]: 1.453

Substance: 161 (guide AGATTAAAGGTCTTTGTACT; listed as DNA, chemistry not fully specified) [compound 161]
- Log2 FC [2]: 2.5156
- Log2 FC [1]: 1.8238

Substance: 211 (guide AGTCCCAAGCGACCCCGAGA; listed as DNA, chemistry not fully specified) [compound 211]
- Log2 FC [2]: 4.4175
- Log2 FC [3]: 4.6655
- Log2 FC [1]: 1.5263

Substance: 215 (guide AGTCTTTGAAGTATGCCTCA; listed as DNA, chemistry not fully specified) [compound 215]
- Log2 FC [2]: 2.1589
- Log2 FC [1]: 1.3799

Substance: 227 (guide ATAGAGTATTTGGTGTCTTT; listed as DNA, chemistry not fully specified) [compound 227]
- Log2 FC [1]: 0.9275

Substance: 242 (guide ATCCTGCGGACGACCCTTCT; listed as DNA, chemistry not fully specified) [compound 242]
- Log2 FC [1]: 0.8809

Substance: 270 (guide ATTTGCTGTGTTTGCTCTGA; listed as DNA, chemistry not fully specified) [compound 270]
- Log2 FC [1]: 1.397

Substance: 410 (guide CCCGTTGCCCGGCAACGGCC; listed as DNA, chemistry not fully specified) [compound 410]
- Log2 FC [1]: 1.9735

Substance: 467 (guide CGACCCTTCTCGGGGTCGCT; listed as DNA, chemistry not fully specified) [compound 467]
- Log2 FC [2]: 2.0481
- Log2 FC [3]: 2.9245
- Log2 FC [1]: 1.8988

Substance: 483 (guide CGCCCCGTGGTCGGTCGGAA; listed as DNA, chemistry not fully specified) [compound 483]
- Log2 FC [2]: 4.8386
- Log2 FC [3]: 6.4685
- Log2 FC [1]: 2.4519

Substance: 491 (guide CGGAACGGCAGACGGAGAAG; listed as DNA, chemistry not fully specified) [compound 491]
- Log2 FC [2]: 4.5168
- Log2 FC [3]: 6.0674
- Log2 FC [1]: 2.6046

Substance: 506 (guide CGTCCCGCGCAGGATCCAGT; listed as DNA, chemistry not fully specified) [compound 506]
- Log2 FC [2]: 3.3238
- Log2 FC [3]: 5.3827
- Log2 FC [1]: 1.5863

Substance: 593 (guide GAATCCCAGAGGATTGCTGG; listed as DNA, chemistry not fully specified) [compound 593]
- Log2 FC [1]: 0.9124

Substance: 598 (guide GACATGAACAAGAGATGATT; listed as DNA, chemistry not fully specified) [compound 598]
- Log2 FC [2]: 4.6761
- Log2 FC [1]: 1.4722

Substance: 601 (guide GACCAAGCCCCAGCCAGTGG; listed as DNA, chemistry not fully specified) [compound 601]
- Log2 FC [2]: 4.6508
- Log2 FC [3]: 7.1876
- Log2 FC [1]: 1.3073

Substance: 641 (guide GATCGGCAGAGGAGCCGAAA; listed as DNA, chemistry not fully specified) [compound 641]
- Log2 FC [2]: 5.5293
- Log2 FC [3]: 7.351
- Log2 FC [1]: 1.58

Substance: 658 (guide GCAAATATACATCGTATCCA; listed as DNA, chemistry not fully specified) [compound 658]
- Log2 FC [2]: 2.2171
- Log2 FC [3]: 4.7952
- Log2 FC [1]: 1.8084

Substance: 668 (guide GCAGAGGTGAAAAAGTTGCA; listed as DNA, chemistry not fully specified) [compound 668]
- Log2 FC [2]: 1.9744
- Log2 FC [1]: 1.297

Substance: 669 (guide GCAGATGAGAAGGCACAGAC; listed as DNA, chemistry not fully specified) [compound 669]
- Log2 FC [2]: 3.0945
- Log2 FC [3]: 4.1676
- Log2 FC [1]: 1.1259

Substance: 671 (guide GCAGCACAGCCTAGCAGCCA; listed as DNA, chemistry not fully specified) [compound 671]
- Log2 FC [1]: 1.2918

Substance: 774 (guide GGGGCGCACCTCTCTTTACG; listed as DNA, chemistry not fully specified) [compound 774]
- Log2 FC [3]: 3.0494
- Log2 FC [1]: 1.1527

Substance: 792 (guide GGTCTGGAGCAAACATTATC; listed as DNA, chemistry not fully specified) [compound 792]
- Log2 FC [2]: 2.103
- Log2 FC [3]: 5.6925
- Log2 FC [1]: 1.5074

Substance: 810 (guide GTAAAGAGAGGTGCGCCCCG; listed as DNA, chemistry not fully specified) [compound 810]
- Log2 FC [2]: 2.5258
- Log2 FC [3]: 5.1825
- Log2 FC [1]: 1.7059

Substance: 825 (guide GTCCCAAGCGACCCCGAGAA; listed as DNA, chemistry not fully specified) [compound 825]
- Log2 FC [2]: 3.3064
- Log2 FC [3]: 5.2457
- Log2 FC [1]: 1.0352

Substance: 829 (guide GTCCTCTTATGTAAGACCTT; listed as DNA, chemistry not fully specified) [compound 829]
- Log2 FC [1]: 0.9029

Substance: 834 (guide GTCGGAACGGCAGACGGAGA; listed as DNA, chemistry not fully specified) [compound 834]
- Log2 FC [2]: 2.7177
- Log2 FC [3]: 4.7704
- Log2 FC [1]: 1.2666

Substance: 839 (guide GTCTTACATAAGAGGACTCT; listed as DNA, chemistry not fully specified) [compound 839]
- Log2 FC [1]: 1.3376

Substance: 958 (guide TCCTGCGGACGACCCTTCTC; listed as DNA, chemistry not fully specified) [compound 958]
- Log2 FC [2]: 3.1878
- Log2 FC [3]: 3.9999

Substance: 998 (guide TCTTTGTACTAGGAGGCTGT; listed as DNA, chemistry not fully specified) [compound 998]
- Log2 FC [2]: 4.2906
- Log2 FC [1]: 2.1989

Substance: 1006 (guide TGACCAAGCCCCAGCCAGTG; listed as DNA, chemistry not fully specified) [compound 1006]
- Log2 FC [2]: 4.2194
- Log2 FC [3]: 7.0191

Substance: 1008 (guide TGACGCAACCCCCACTGGCT; listed as DNA, chemistry not fully specified) [compound 1008]
- Log2 FC [2]: 1.8835
- Log2 FC [3]: 4.9717

Substance: 1025 (guide TGCCCAAGGTCTTACATAAG; listed as DNA, chemistry not fully specified) [compound 1025]
- Log2 FC [2]: 2.0852
- Log2 FC [1]: 1.4524

Substance: 1028 (guide TGCCGTTCCGACCGACCACG; listed as DNA, chemistry not fully specified) [compound 1028]
- Log2 FC [2]: 3.8548
- Log2 FC [1]: 0.8922

Substance: 1065 (guide TGGTCGGTCGGAACGGCAGA; listed as DNA, chemistry not fully specified) [compound 1065]
- Log2 FC [2]: 2.8985
- Log2 FC [3]: 6.0793

Substance: 1072 (guide TGTAGTATGCCCTGAGCCTG; listed as DNA, chemistry not fully specified) [compound 1072]
- Log2 FC [1]: 1.1325

Substance: 1084 (guide TTAAAGGTCTTTGTACTAGG; listed as DNA, chemistry not fully specified) [compound 1084]
- Log2 FC [1]: 1.0831

Substance: 1132 (guide TTTACCCCGTTGCCCGGCAA; listed as DNA, chemistry not fully specified) [compound 1132]
- Log2 FC [2]: 2.1043
- Log2 FC [3]: 4.252
